Assay results from patent publication US7745651B2, “Cationic lipids and methods of use” (Protiva Biotherapeutics, Inc., priority 2004, dated 2010).

What was measured:
Neuro2A-G cells = test: Uptake of SNALP containing Cy3-labeled siRNA, fluorescence microscopy; type: cell-based; details: 0.5 μg/mL siRNA, 4 hours
Procedure: Uptake of SNALP Containing Cy3-labeled siRNA: SNALP were formulated as previously described, but using siRNA labelled with the fluorophore Cy3 (Cy3-siRNA was a gift of Sirna Therapeutics Inc, Boulder, Colo.). The encapsulation, siRNA concentration, and particle size were determined as described.
For the uptake study, 8×10^4 Neuro2A-G cells were grown overnight on 4-well chamber slides (BD Falcon, Mississauga, ON) in MEM containing 0.25 mg/mL G418. DSDMA, DODMA, DLinDMA, and DLenDMA SNALP containing Cy3-siRNA, as well as naked Cy3-siRNA and unlabeled DSDMA SNALP were placed on the cells at 0.5 μg/mL siRNA. After a 4 hour incubation with the transfection media, the cells were washed with PBS, then with MEM containing G418 and finally with PBS once more. […] The cells were viewed using an Olympus BX60 Microscope modified for fluorescence capabilities. Cy3 fluorescence within the cells was visualized using a rhodamine cube set (Microgen Optics, Redding, Calif.) and the DAPI fluorescence was visualized using a DAPI cube set (Carsen Group, Markham, ON). […] Pictures of the cells were taken at exposure times of ¼ sec when examining Cy3 fluorescence and 1/80 sec when examining DAPI fluorescence.
The uptake process was examined further with the use of fluorescently labelled SNALP. […] The Cy3 fluorescence (red) is most intense in cells treated with DSDMA containing SNALP. […]

[1] = 31P-NMR of DPPS/cationic lipid MLV, bilayer-to-hexagonal phase transition temperature; type: physicochemical; details: MLV of DPPS and cationic lipid 1:1 molar ratio, 10 mM sodium citrate pH 4
Procedure: ^31P Nuclear Magnetic Resonance Spectroscopy: Multilamellar vesicles (MLV) were prepared comprising DPPS and cationic lipid at a molar ratio of 1:1. This was accomplished by drying the lipids from chloroform solution, transferring to 10 mm NMR tubes, and hydrating in 1.5 mL of 10 mM sodium citrate, pH 4. Free induction decays (FIDs) corresponding to 1000 scans were obtained with a 3.0 μs, 60o pulse with a 1 s interpulse delay and a spectral width of 25000 Hz. A gated two-level proton decoupling was used to ensure sufficient decoupling with minimum sample heating. An exponential multiplication corresponding to 50 Hz of line broadening was applied to the FIDs prior to Fourier transformation. The sample temperature (+/−1° C.) was regulated using a Bruker B-VT1000 variable temperature unit. Chemical shifts were referenced to 85% phosphoric acid as an external standard.
The significance of saturation with respect to phase transition temperature was investigated using ^31P-NMR. […] By determining the temperature at which the conversion occurs, the relative ease with which the lipids form the HII phase, their ‘fusogenicity’, can be determined.
MLV were prepared using the anionic lipid DPPS in a 1:1 molar ratio with each cationic lipid. The ^31P-NMR spectra of the MLV were measured at various temperatures. […]

| SMILES | cellular uptake of Cy3-labeled siRNA (Cy3 fluorescence) (Neuro2A-G cells) | bilayer-to-hexagonal (HII) phase transition temperature (Tc) [1] [°C] |
| --- | --- | --- |
| CC/C=C\C/C=C\C/C=C\CCCCCCCCOCC(CN(C)C)OCCCCCCCC/C=C\C/C=C\C/C=C\CC (stereo not drawn) [DLenDMA, 1,2-Dilinolenyloxy-N,N-dimethylaminopropane] | extremely faint |  |
| CCCCCCCCCCCCCCCCCC[N+](C)(C)CCCCCCCCCCCCCCCCCC [DSDMA, Distearyldimethylammonium] | most intense | > 50 |
